For experiment [1], the system named is T47D cells. The experiment can be described thus: Alkaline phosphatase activity in T47D cells (induction and its inhibition). The note with it: for Agonist activity, alkaline phosphatase induction: ligand alone, three days. The experiment is classed as cell-based, human. From the text:
The functional activities of the cyclocymopol analogues in the human breast cell line, T47D, were also investigated. T47D cells have proven to be a particularly useful model to investigate the molecular actions of sex steroids because they contain endogenous functional receptors for, and respond to, progestins, and their respective antagonists. Moreover, these cells contain exceptionally high titers of progesterone receptors and are exquisitely sensitive to the actions of progestins in a manner quite similar to their actions in normal and neoplastic mammary epithelial cells. In T47D cells, progestins induce de novo synthesis of a plasma-associated alkaline phosphatase, which has been reported to be similar, if not identical, to the alkaline phosphatase present in the normal breast and human milk. These tests were conducted according to the following illustrative example. […] For routine induction of alkaline phosphatase, cells were treated for three days with two media changes and harvested as described below. […] Nuclei were sedimented at 2500 rpm, and the supernatant was saved as cytosol. The protein content of the cytosol was assayed by the method of Bradford. Alkaline phosphatase activity was determined by incubating one volume of cell extract with three volumes of 1 mg/ml p-nitrophenol phosphate prepared in DEAM (1M diethanolamine, pH=9, containing 2 mM magnesium chloride) at room temperature for 20 min. At the end of the incubation time, the reaction was stopped with an equal volume of 1N NaOH. Ten standards of p-nitrophenol were prepared in DEAM buffer and absorbance was read at 405 nm. Alkaline phosphatase activity is expressed as pmol p-nitrophenol formed/min/mg protein.

In experiment [2] the target is T1, glucocorticoid receptor (Homo sapiens, UniProt P04150).
T1 sequence (P04150 1-777): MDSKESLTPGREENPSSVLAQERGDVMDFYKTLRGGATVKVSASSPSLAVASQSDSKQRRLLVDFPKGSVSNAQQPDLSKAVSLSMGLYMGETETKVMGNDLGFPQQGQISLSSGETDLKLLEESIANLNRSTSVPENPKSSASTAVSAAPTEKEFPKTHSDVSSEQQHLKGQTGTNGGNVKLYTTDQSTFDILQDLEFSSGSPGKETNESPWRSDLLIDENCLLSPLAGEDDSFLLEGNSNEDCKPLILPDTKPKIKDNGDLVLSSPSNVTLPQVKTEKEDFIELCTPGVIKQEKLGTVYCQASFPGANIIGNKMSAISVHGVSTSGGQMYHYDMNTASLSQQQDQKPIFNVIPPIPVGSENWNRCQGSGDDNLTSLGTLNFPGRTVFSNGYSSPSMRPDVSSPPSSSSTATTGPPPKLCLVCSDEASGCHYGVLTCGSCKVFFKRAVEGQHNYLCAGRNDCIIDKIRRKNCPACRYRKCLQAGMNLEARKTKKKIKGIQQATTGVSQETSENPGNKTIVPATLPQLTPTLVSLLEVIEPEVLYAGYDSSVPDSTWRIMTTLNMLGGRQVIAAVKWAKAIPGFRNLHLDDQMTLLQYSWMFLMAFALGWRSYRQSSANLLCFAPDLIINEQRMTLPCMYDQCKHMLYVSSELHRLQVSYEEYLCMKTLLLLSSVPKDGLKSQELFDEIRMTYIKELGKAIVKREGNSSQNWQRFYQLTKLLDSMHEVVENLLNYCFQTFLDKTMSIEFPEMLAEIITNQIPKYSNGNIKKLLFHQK
In words: Cross-reactivity, glucocorticoid receptor activation (agonist and antagonist). The experiment is classed as cell-based. From the text:
This assay is described in further detail in U.S. Pat. Nos. 4,981,784 and 5,071,773, which are incorporated herein by reference. The co-transfection assay provides a method for identifying functional ligands (either agonists which mimic, or antagonists which inhibit, the effect of hormones) for ligand-responsive receptor proteins.
The co-transfection assay provides a mechanism to evaluate ability of a compound to function as an agonist or antagonist of the activity modulated by an intracellular receptor. The co-transfection assay mimics an in vivo system in the laboratory. In the co-transfection assay, a cloned gene for an intracellular receptor is introduced by transfection (a procedure to induce cells to take up foreign genes) into a background cell substantially devoid of endogenous intracellular receptors. This introduced gene directs the recipient cells to make the intracellular receptor protein. A second gene is also introduced (co-transfected) into the same cells in conjunction with the intracellular receptor gene. This second gene functions as a reporter for the transcription-modulating activity of the target intracellular receptor. The reporter acts as a surrogate for the products normally expressed by a gene under control of the target receptor and its natural hormone.
A preferred reporter gene is one which expresses the firefly enzyme luciferase. The co-transfection assay can detect small molecule agonists or antagonists of target intracellular receptors. Exposing the cells to an agonist ligand increases reporter activity in the transfected cells that can be conveniently measured, reflecting ligand-dependent, intracellular receptor-mediated increases in reporter transcription. To detect antagonists, the co-transfection assay is carried out in the presence of a constant concentration of an agonist known to induce a defined reporter signal. […]
Co-transfected cells are exposed to a medium to which is added the potential ligand that is being evaluated. […] Antagonist activity is evaluated by adding the candidate ligand and a known agonist to the co-transfected cells. […]

Each structure is given as a SMILES string. “Also recorded” adds a separate entry of the source.

In the case of `CC#C[C@]1(O)CC[C@H]2[C@@H]3CCC4=CC(=O)CCC4=C3[C@@H](c3ccc(N(C)C)cc3)C[C@@]21C` [RU-486, reference compound], the “Inhibition of alkaline phosphatase induced by SO-54 and SO-51” value in experiment [1] (induction by SO-54 or SO-51, FIG. 11) is recorded as “blocked”. Moreover, in experiment [2], the “Agonist/antagonist activity with glucocorticoid receptor” value (from here on “Agonist/antagonist activity”) is given as “significant activity”.
For `C=C1CC[C@@H](Br)C(C)(C)[C@@H]1Cc1cc(OC)c(Br)cc1OC(C)=O` [SO-52], the “Agonist activity, alkaline phosphatase induction” value in experiment [1] was “very weak agonists”. The “Agonist/antagonist activity” value in experiment [2] was “slight agonist activity”.
With `C=C1CC[C@@H](Br)C(C)(C)[C@@H]1Cc1cc(OC)c(Br)cc1O` [SO-53, (3R)-cyclocymopol monomethyl ether], the “Inhibition of progesterone-stimulated alkaline phosphatase activity” value in experiment [1] (1.0 nM progesterone) is on record as “attenuated this induction in a concentration-dependent manner; also recorded: attenuated the effects of progesterone in a concentration-dependant manner”. Moreover, in experiment [1] (R5020-induced), the “Inhibition of R5020-induced alkaline phosphatase activity” value is reported as “effective antagonist of the progesterone mimic”. The “Agonist activity, alkaline phosphatase induction” value in experiment [1] is “very weak agonists”. Besides, the “Agonist/antagonist activity” value in experiment [2] is “neither agonist nor antagonist activity”.
